Like-named read-outs stand apart in the source and are kept apart here.

The subject of this assay is Klebsiella pneumoniae ZFM4. The assay can be described thus: Antibiotic resistance of ZFM4 by disk diffusion method. It is filed as cell-based. The note with it: for antibiotic resistance of ZFM4 (in words): disk diffusion method. As to the method:
The antibiotic susceptibility test disk was purchased from Hangzhou Microbial Reagent Co., Ltd., including amoxicillin, cefuroxime, gentamycin, erythromycin, vancomycin, tetracycline, penicillin, ciprofloxacin, streptomycin, and chloramphenicol.
The antibiotic resistance of Klebsiella pneumoniae ZFM4 was evaluated by disk diffusion method. 100 μL of the second-generation bacterial culture of Klebsiella pneumoniae ZFM4 was coated on LB solid medium and the antibiotic susceptibility test disk was placed on the plate. After aerobically incubation at 37° C. for 48 hrs, the diameter of the inhibition zone was measured. […] That is, Klebsiella pneumoniae ZFM4 had multiple drug resistance.

`CN(C)[C@@H]1C(O)=C(C(N)=O)C(=O)[C@@]2(O)C(O)=C3C(=O)c4c(O)cccc4[C@@](C)(O)[C@H]3C[C@@H]12` [Tetracycline]: under “Klebsiella pneumoniae, ZFM4, Tetracycline disk 30 μg/tablet, 37° C., 48 hrs, read-out: Drug resistance evaluation result”, the zone of inhibition at 30 µg/disc is over 15 mm. Take `CN[C@H](CC(C)C)C(=O)N[C@H]1C(=O)N[C@@H](CC(N)=O)C(=O)N[C@H]2C(=O)N[C@H]3C(=O)N[C@H](C(=O)N[C@H](C(=O)O)c4cc(O)cc(O)c4-c4cc3ccc4O)[C@H](O)c3ccc(c(Cl)c3)Oc3cc2cc(c3O[C@@H]2O[C@H](CO)[C@@H](O)[C@H](O)[C@H]2O[C@H]2C[C@](C)(N)[C@H](O)[C@H](C)O2)Oc2ccc(cc2Cl)[C@H]1O` [Vancomycin]: the “antibiotic resistance of ZFM4 (in words)” value is reported as “resistant”. Further, the zone of inhibition at 30 µg/disc (Klebsiella pneumoniae, ZFM4, 48 h, read-out: Drug resistance evaluation result) is under 14 mm. With `O=C(O)c1cn(C2CC2)c2cc(N3CCNCC3)c(F)cc2c1=O` [Ciprofloxacin], the “antibiotic resistance of ZFM4 (in words)” value is given as “moderately resistant”. The zone of inhibition at 5 µg/disc (Klebsiella pneumoniae, ZFM4, Ciprofloxacin disk 5 μg/tablet, 37° C., 48 hrs, read-out: Drug resistance evaluation result) was 15 to 21 mm. `CO/N=C(\C(=O)N[C@@H]1C(=O)N2C(C(=O)O)=C(COC(N)=O)CS[C@H]12)c1ccco1` [Cefuroxime]: the “antibiotic resistance of ZFM4 (in words)” value is “resistant”. The zone of inhibition at 30 µg/disc (Klebsiella pneumoniae, ZFM4, Cefuroxime disk 30 μg/tablet, 37° C., 48 hrs, read-out: Drug resistance evaluation result) was under 10 mm. Regarding `[H]/N=C(/N)N[C@H]1[C@H](O)[C@@H](O)[C@H](O[C@@H]2O[C@@H](C)[C@](O)(C=O)[C@H]2O[C@@H]2O[C@@H](CO)[C@H](O)[C@@H](O)[C@@H]2NC)[C@@H](N/C(N)=N\[H])[C@@H]1O` [Streptomycin], the “antibiotic resistance of ZFM4 (in words)” value is on record as “moderately resistant”. Also, under “Klebsiella pneumoniae, ZFM4, Streptomycin disk 10 μg/tablet, 37° C., 48 hrs, read-out: Drug resistance evaluation result”, the zone of inhibition at 10 µg/disc fell in the range of 11 to 15 mm.

For the compound Penicillin, the “antibiotic resistance of ZFM4 (in words)” value was “resistant”. The “Drug resistance evaluation result” value (Penicillin disk 10 μg/tablet, 37° C., 48 hrs) is “R (≤14)”.

Turning to `CC[C@H]1OC(=O)[C@H](C)[C@@H](O[C@H]2C[C@@](C)(OC)[C@@H](O)[C@H](C)O2)[C@H](C)[C@@H](O[C@@H]2O[C@H](C)C[C@H](N(C)C)[C@H]2O)[C@](C)(O)C[C@@H](C)C(=O)[C@H](C)[C@@H](O)[C@]1(C)O` [Erythromycin], the “antibiotic resistance of ZFM4 (in words)” value was “resistant”. For the same compound, the zone of inhibition at 15 µg/disc (Klebsiella pneumoniae, ZFM4, Erythromycin disk 15 μg/tablet, 37° C., 48 hrs, read-out: Drug resistance evaluation result) is under 13 mm. For Gentamicin, the “antibiotic resistance of ZFM4 (in words)” value is listed as “resistant”. The “Drug resistance evaluation result” value (Gentamicin disk 10 μg/tablet, 37° C., 48 hrs) was “R (≤12)”.

Take `CC1(C)S[C@@H]2[C@H](NC(=O)[C@H](N)c3ccc(O)cc3)C(=O)N2[C@H]1C(=O)O` [Amoxicillin]: the “antibiotic resistance of ZFM4 (in words)” value is “resistant”. Further, the zone of inhibition at 25 µg/disc (Klebsiella pneumoniae, ZFM4, Amoxicillin disk 25 μg/tablet, 37° C., 48 hrs, read-out: Drug resistance evaluation result) is under 13 mm. On to `O=C(N[C@H](CO)[C@H](O)c1ccc([N+](=O)[O-])cc1)C(Cl)Cl` [Chloramphenicol], for which the “antibiotic resistance of ZFM4 (in words)” value is reported as “resistant”. In addition, where the note is “Klebsiella pneumoniae, ZFM4, Chloramphenicol disk 30 μg/tablet, 37° C., 48 hrs, read-out: Drug resistance evaluation result”, the zone of inhibition at 30 µg/disc is under 12 mm.

Source of the values: US12285450B2, “Lactiplantibacillus plantarum effectively inhibiting multi-drug-resistant Klebsiella pneumoniae and use thereof” (priority 2023, dated 2025).
